Experimental data as given in US8609403B2, “Polynucleotide derived from novel hepatitis C virus strain and use thereof” (Tokyo Metropolitan Institute of Medical Science, priority 2009, dated 2013).

Test system: HCV-RMT strain
Experiment: Evaluation of anti-HCV agents in Huh7 cells maintaining the RMT recombinant virus (triple mutation), HCV amount by real-time PCR
Format: cell-based, hepatitis C virus
Settings: Huh7 cells 10 days after introduction of RMT-tri genome; agent added 16 hours after plating, total RNA purified 48 hours later; FIG. 8
Procedure: E1202G or the 3 acclimation mutations (E1202G, E1056V and A2199T) was/were introduced to pRMTx, and the obtained vectors were designated pRMTx-E1202G and pRMTx-tri, respectively. From pRMTx, pRMTx-E1202G and pRMTx-tri, viral genomic RNAs were prepared (RMT, RMT-E1202G and RMT-tri, respectively), and 30 μg each of the prepared genomic RNAs were introduced to Huh7 cells by electroporation. The cells were plated on a culture dish and subcultured 3 to 4 times per week, during which the cell were sampled. From the sampled cells, total RNA was purified by the AGPC method, and the copy number of the HCV genome per 1 μg of the total RNA was quantified according to a conventional method (Takeuchi et al., Gastroenterology, 1999) by reverse transcription real-time PCR using QuantiTect Multiplex PCR kit (manufactured by Qiagen). Daily changes in the copy number of the HCV genome in the cells to which RMT-RNA, RMT-E1202G-RNA and RMT-tri-RNA were respectively introduced are shown in FIG. 7.
Further, 10 days after the introduction of the genome, the cells in the state where the HCV genome was maintained were plated on a 96-well plate, and an agent was added thereto 16 hours later, followed by purification of total RNA 48 hours later from each well using ABI prizm 6100 and a purification kit (manufactured by Applied Biosystems). The HCV amount in the RNA, which was obtained by the above real-time PCR, and the total RNA amount quantified using an absorption spectrophotometer are shown in FIG. 8. As anti-HCV agents, an HCV polymerase inhibitor (MK0608), HCV protease inhibitor (BILN2061), IFN-α and cyclophilin inhibitor (cyclosporin A) were used.

**Q.** Which “growth inhibition capacities against HCV” value does the source give for `COc1ccc2c(O[C@@H]3C[C@H]4C(=O)N[C@]5(C(=O)O)C[C@H]5/C=C\CCCCC[C@H](NC(=O)OC5CCCC5)C(=O)N4C3)cc(-c3csc(NC(C)C)n3)nc2c1` [BILN2061] here?
**A.** Its value is “almost the same as those described in documents”.

**Q.** `C[C@@]1(O)[C@H](O)[C@@H](CO)O[C@H]1n1ccc2c(N)ncnc21` [MK0608] was tested. Which “growth inhibition capacities against HCV” value did it give?
**A.** The value was “almost the same as those described in documents”.

**Q.** IFN-α was tested. Which “growth inhibition capacities against HCV” value did it give?
**A.** The value was “almost the same as those described in documents”.
